The results in this text go back to paper PMC10335629 (Journal of the American Chemical Society, 2023).

For assay [1], the target named is nLuc-GLP-2R (UniProt O95838).
The target in assay [2] is nLuc-GLP-2R (UniProt O95838). Nature of the assay: FRET or BRET.
Another assay deals with T1, GLP-2R (Homo sapiens, UniProt O95838).
T1 sequence (O95838 1-553): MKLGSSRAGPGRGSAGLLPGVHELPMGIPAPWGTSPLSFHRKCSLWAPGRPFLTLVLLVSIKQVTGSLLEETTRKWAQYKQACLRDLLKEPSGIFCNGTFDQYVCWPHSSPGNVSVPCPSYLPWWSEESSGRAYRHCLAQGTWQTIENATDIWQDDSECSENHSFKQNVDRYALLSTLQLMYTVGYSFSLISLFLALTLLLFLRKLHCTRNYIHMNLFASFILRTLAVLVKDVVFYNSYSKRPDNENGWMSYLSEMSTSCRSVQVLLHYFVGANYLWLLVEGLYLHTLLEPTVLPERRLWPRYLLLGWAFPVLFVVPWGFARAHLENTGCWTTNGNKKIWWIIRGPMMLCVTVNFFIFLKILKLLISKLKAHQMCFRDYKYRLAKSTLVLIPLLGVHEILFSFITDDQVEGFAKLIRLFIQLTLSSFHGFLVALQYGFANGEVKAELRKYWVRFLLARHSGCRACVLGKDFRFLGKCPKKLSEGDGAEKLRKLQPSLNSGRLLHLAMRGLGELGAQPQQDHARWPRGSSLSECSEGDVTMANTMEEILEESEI
Put plainly: GLP-2R activation: cAMP production, GloSensor HEK293 cells. A general note: cAMP levels reflect the balance of adenylyl cyclase and phosphodiesterase activity.

For the next assay, the target named is GLP-1R (Homo sapiens, UniProt P43220). Put plainly: GLP-1R activation: cAMP production, GloSensor HEK293 cells. The format is cell-based.
In assay [3] the target is T2, nLuc-GLP-2R (Homo sapiens, UniProt O95838).
T2 sequence (O95838 1-553): T1 sequence (O95838 1-553)
Put plainly: nLuc-GLP-2R competition binding.

A further assay has as its target nLuc-GLP-1R (Homo sapiens, UniProt P43220). Put plainly: nLuc-GLP-1R competition binding.
Assay [4] has as its target nLuc-GLP-2R (UniProt O95838). This is another data set of the same source.

Where two headings read alike, the source gives them in different places. No end group written: not given here.

The IC50 is the concentration that gives 50% inhibition. Low readings indicate higher potency, high ones lower potency. The EC50 is the concentration needed to bring the measured effect to its halfway point. Low readings indicate greater potency, high ones weaker potency.

Sequence of GLP-1R (P43220 24-463): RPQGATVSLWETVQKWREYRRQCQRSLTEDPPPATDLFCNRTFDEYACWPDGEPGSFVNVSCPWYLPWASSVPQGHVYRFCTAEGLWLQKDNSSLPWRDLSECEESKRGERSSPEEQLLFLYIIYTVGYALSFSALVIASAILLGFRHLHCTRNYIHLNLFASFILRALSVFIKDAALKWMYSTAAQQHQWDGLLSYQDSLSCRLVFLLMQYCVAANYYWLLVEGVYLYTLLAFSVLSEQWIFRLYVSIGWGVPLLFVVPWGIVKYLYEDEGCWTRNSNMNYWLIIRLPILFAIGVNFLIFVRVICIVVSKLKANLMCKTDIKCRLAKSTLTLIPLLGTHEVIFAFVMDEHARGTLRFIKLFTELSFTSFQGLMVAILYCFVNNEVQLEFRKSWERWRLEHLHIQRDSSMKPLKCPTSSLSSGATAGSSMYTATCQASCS
Sequence of nLuc-GLP-1R (P43220 24-463): as above

In the assay with nLuc-GLP-2R [1], GLP-2 (peptide) returned a GLP-2R cAMP Production, % Max (normalized to GLP-2) of 99% and a GLP-2R cAMP Production, EC50 (native GLP-2R) of 0.086 nM. Further, the IC50 with nLuc-GLP-2R [2] came out at 25 nM.

Turning to “GLP-2-NH2: C-terminal amide analogue of the hormone GLP-2”, the “effect of altering the C-terminus to a primary amide on GLP-2R activation” value with GLP-2R (natural sequence, compared with GLP-2, Figure S1) is “no effect on GLP-2R activation”.

In the case of “HGEGTFSSELATILDALAARDFIAWLIATKITDKKKKKK-NH2 (C-terminus assumed) [GLE, glepaglutide]”, at GLP-1R (maximal response normalized relative to GLE, ≥4 independent experiments, ± S.E.M., NR = No Response), the “GLP-1R cAMP Production % Max” value stood at 95 ± 2%. Besides, the “lower affinity for nLuc-GLP-2R relative to GLP-2” value on nLuc-GLP-2R [3] (competition BRET, Figure S2) is ~ 10 fold. The Emax at GLP-2R (HEK293, read-out: GLP-2R cAMP Production % Max) was found to be 98 ± 1%.

In the case of “HGEGTFSSELATILDALAARDFIAWLIATKITDKKKKKK-NH2 [GLE, glepaglutide]”, the EC50 at GLP-1R was 5.1 nM; at GLP-2R, 0.44 nM. Further, the IC50 on nLuc-GLP-1R turned out to be 290 nM; at nLuc-GLP-2R [3] it was 170 nM.

Substance glepaglutide (GLE) (peptide) returned a GLP-2R cAMP Production, EC50 (native GLP-2R) in the assay with nLuc-GLP-2R [4] of 0.44 nM.
